Drawing on patent US8546381B2, “Bridged heterocyclic compounds and methods of use” (Medivation Technologies, Inc., priority 2008, dated 2013), this text covers inhibition for six compounds.

The target in assay [1] is T1, human recombinant serotonin (5-Hydroxytryptamine) 5-HT2A receptor (Homo sapiens, UniProt P28223).
T1 construct: expressed in transfected cells; host or cells: CHO-K1 cells
The experiment in a line: Serotonin 5-HT2A radioligand binding ([3H]Ketanserin). The following applies: read-out: Serotonin 5-HT2A, inhibition of ligand binding (1 μM). The protocol:
To evaluate in radioligand binding assays the activity of compounds of the invention, human recombinant serotonin (5-Hydroxytryptamine) 5-HT2A receptor expressed in Chinese hamster ovary (CHO-K1) cells (Bonhaus, D. W. et al. Br. J. Pharmacol. 115:622, 1995; Saucier, C. and Albert, P. R., J. Neurochem. 68:1998, 1997) in a 50 mM Tris-HCl buffer, pH 7.4, was used. Compounds of the invention were incubated with 0.5 nM [^3H]Ketanserin for 60 minutes at 25° C. Non-specific binding was estimated in the presence of 1 μM Mianserin. Receptor proteins were filtered and washed, the filters were then counted to determine [^3H]Ketanserin specifically bound. Compounds were screened at 1 μM or lower, using 1% DMSO as vehicle. Biochemical assay results are presented as the percent inhibition of specific binding in Table 4.

The target in assay [2] is T2, human recombinant serotonin (5-Hydroxytryptamine) 5-HT2C receptor (Homo sapiens, UniProt P28335).
T2 construct: expressed in transfected cells; host or cells: CHO-K1 cells
T2 sequence (P28335 33-458): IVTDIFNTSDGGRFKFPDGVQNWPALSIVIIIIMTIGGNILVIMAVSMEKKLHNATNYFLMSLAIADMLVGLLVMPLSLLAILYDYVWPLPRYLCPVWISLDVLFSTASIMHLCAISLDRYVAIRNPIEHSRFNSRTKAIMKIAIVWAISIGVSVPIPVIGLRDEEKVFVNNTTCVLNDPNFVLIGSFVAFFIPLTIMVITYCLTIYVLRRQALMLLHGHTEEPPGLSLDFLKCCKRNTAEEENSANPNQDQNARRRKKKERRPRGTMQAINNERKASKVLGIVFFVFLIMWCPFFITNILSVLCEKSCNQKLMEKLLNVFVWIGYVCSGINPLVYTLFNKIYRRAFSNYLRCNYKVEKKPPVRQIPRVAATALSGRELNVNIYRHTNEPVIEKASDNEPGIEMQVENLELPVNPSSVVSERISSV
Kind of assay: Serotonin 5-HT2C radioligand binding ([3H]Mesulergine). The following applies: read-out: Serotonin 5-HT2C, inhibition of ligand binding (1 μM). The procedure:
To evaluate in radioligand binding assays the activity of compounds of the invention, human recombinant serotonin (5-Hydroxytryptamine) 5-HT2C receptor expressed in Chinese hamster ovary (CHO-K1) cells (Wolf, W. A. and Schutz, J. S., J. Neurochem. 69:1449, 1997) in a modified Tris-HCl buffer (50 mM Tris-HCl, pH 7.4, 0.1% Ascorbic Acid, 10 μM Pargyline) was used. Compounds of the invention were incubated with 1 nM [^3H]Mesulergine for 60 minutes at 25° C. Non-specific binding was estimated in the presence of 1 μM Mianserin. Receptor proteins were filtered and washed, the filters were then counted to determine [^3H]Mesulergine specifically bound. Compounds were screened at 1 μM or lower, using 1% DMSO as vehicle. Biochemical assay results are presented as the percent inhibition of specific binding in Table 4.

In assay [3] the target is T3, human recombinant serotonin (5-Hydroxytryptamine) 5-HT7 receptor (Homo sapiens, UniProt P34969).
T3 construct: expressed in transfected cells; host or cells: CHO cells
The experiment in a line: Serotonin 5-HT7 radioligand binding ([3H]LSD). The following applies: read-out: Serotonin 5-HT7, inhibition of ligand binding (1 μM). The protocol:
To evaluate in radioligand binding assays the activity of compounds of the invention, human recombinant serotonin (5-Hydroxytryptamine) 5-HT7 receptor expressed in Chinese hamster ovary (CHO) cells (Roth, B. L. et al., J. Pharmacol. Exp. Ther. 268:1403, 1994; Shen, Y. et al., J. Biol. Chem. 268:18200, 1993) in a modified Tris-HCl buffer (50 mM Tris-HCl, pH 7.4, 10 mM MgCl2, 0.5 mM EDTA) was used. Compounds of invention were incubated with 5.5 nM [^3H] Lysergic acid diethylamide (LSD) for 2 hours at 25° C. Non-specific binding was estimated in the presence of 10 μM Serotonin (5-HT). Receptor proteins were filtered and washed, the filters were then counted to determine [^3H]LSD specifically bound. Compounds were screened at 1 μM or lower, using 1% DMSO as vehicle. Biochemical assay results are presented as the percent inhibition of specific binding in Table 4.

The target of assay [4] is T4, human recombinant serotonin (5-Hydroxytryptamine) 5-HT6 receptor (Homo sapiens, UniProt P50406).
T4 construct: expressed in transfected cells; host or cells: human HeLa cells
The experiment in a line: Serotonin 5-HT6 radioligand binding ([3H]LSD). The following applies: read-out: Serotonin 5-HT6, inhibition of ligand binding (1 μM). The procedure: To evaluate in radioligand binding assays the activity of compounds of the invention, human recombinant serotonin (5-Hydroxytryptamine) 5-HT6 receptor expressed in human HeLa cells (Monsma, F. J. Jr. et al., Mol. Pharmacol. 43:320, 1993) in a modified Tris-HCl buffer (50 mM Tris-HCl, pH 7.4, 150 mM NaCl, 2 mM Ascorbic Acid, 0.001% BSA) was used. Compounds of the invention were incubated with 1.5 nM [3H]Lysergic acid diethylamide (LSD) for 120 minutes at 37° C. Non-specific binding was estimated in the presence of 5 μM Serotonin (5-HT). Receptor proteins were filtered and washed, the filters were then counted to determine [3H]LSD specifically bound. Compounds were screened at 1 μM or lower, using 1% DMSO as vehicle. Biochemical assay results are presented as the percent inhibition of specific binding in Table 4.

Assay [5] deals with T5, human recombinant histamine H2 receptor (Homo sapiens, UniProt P25021).
T5 construct: expressed in transfected cells; host or cells: CHO-K1 cells
Kind of assay: Histamine H2 radioligand binding ([125I]Aminopotentidine). The settings on record: compound at 1 μM; inhibition of specific [125I]Aminopotentidine binding; read-out: Histamine Binding (1 μM) H2, Percentage Inhibition. The protocol:
To evaluate in radioligand binding assays the activity of compounds of the invention, human recombinant histamine H2 receptor expressed in Chinese hamster ovary (CHO) K1 cells (Ruat, M., Proc. Natl. Acad. Sci. USA. 87(5):1658, 1990) in a 50 mM Phosphate buffer, pH 7.4 was used. Compounds of the invention were incubated with 0.1 nM [^125I]Aminopotentidine for 120 minutes at 25° C. Non-specific binding was estimated in the presence of 3 μM Tiotidine. Receptor proteins were filtered and washed, the filters were then counted to determine [^125I]Aminopotentidine specifically bound. Compounds were screened at 1 μM or lower, using 1% DMSO as vehicle. Biochemical assay results are presented as the percent inhibition of specific binding in Table 2.

Assay [6] has as its target T6, human recombinant histamine H1 receptor (Homo sapiens, UniProt P35367).
T6 construct: expressed in transfected cells; host or cells: CHO cells
Kind of assay: Histamine H1 radioligand binding ([3H]Pyrilamine). The settings on record: compound at 1 μM; inhibition of specific [3H]Pyrilamine binding; read-out: Histamine Binding (1 μM) H1, Percentage Inhibition. The procedure:
To evaluate in radioligand binding assays the activity of compounds of the invention, human recombinant histamine H1 receptor expressed in Chinese hamster ovary (CHO) cells (De Backer, M. D. et al., Biochem. Biophys. Res. Comm. 197(3):1601, 1993) in a modified Tris-HCl buffer (50 mM Tris-HCl, pH 7.4, 2 mM MgCl2, 100 mM NaCl, 250 mM Sucrose) was used. Compounds of the invention were incubated with 1.2 nM [^3H]Pyrilamine for 180 minutes at 25° C. Non-specific binding was estimated in the presence of 1 μM pyrilamine. Receptor proteins were filtered and washed, the filters were then counted to determine [^3H]Pyrilamine specifically bound. Compounds were screened at 1 μM or lower, using 1% DMSO as vehicle. Biochemical assay results are presented as the percent inhibition of specific binding in Table 2.

The target of assay [7] is T7, human recombinant dopamine D2L receptor (Homo sapiens, UniProt P14416).
T7 construct: expressed in transfected cells; host or cells: CHO cells
Kind of assay: Dopamine D2L radioligand binding ([3H]Spiperone). The settings on record: read-out: Dopamine (1 μM) D2L, inhibition of ligand binding. The protocol:
To evaluate in radioligand binding assays the activity of compounds of the invention, human recombinant dopamine D2L receptor expressed in Chinese hamster ovary (CHO) cells (Grandy, D. K. et al. Proc. Natl. Acad. Sci. USA. 86:9762, 1989; Hayes, G. et al., Mol. Endocrinol. 6:920, 1992) in a modified Tris-HCl buffer (50 mM Tris-HCl, pH 7.4, 1.4 mM Ascorbic Acid, 0.001% BSA, 150 mM NaCl) was used. Compounds of the invention were incubated with 0.16 nM [^3H]Spiperone for 120 minutes at 25° C. Non-specific binding was estimated in the presence of 10 μM Haloperidol. Receptor proteins were filtered and washed, the filters were then counted to determine [^3H]Spiperone specifically bound. Compounds were screened at 1 μM or lower, using 1% DMSO as vehicle. Biochemical assay results are presented as the percent inhibition of specific binding in Table 3.

T7 sequence (P14416 whole entry): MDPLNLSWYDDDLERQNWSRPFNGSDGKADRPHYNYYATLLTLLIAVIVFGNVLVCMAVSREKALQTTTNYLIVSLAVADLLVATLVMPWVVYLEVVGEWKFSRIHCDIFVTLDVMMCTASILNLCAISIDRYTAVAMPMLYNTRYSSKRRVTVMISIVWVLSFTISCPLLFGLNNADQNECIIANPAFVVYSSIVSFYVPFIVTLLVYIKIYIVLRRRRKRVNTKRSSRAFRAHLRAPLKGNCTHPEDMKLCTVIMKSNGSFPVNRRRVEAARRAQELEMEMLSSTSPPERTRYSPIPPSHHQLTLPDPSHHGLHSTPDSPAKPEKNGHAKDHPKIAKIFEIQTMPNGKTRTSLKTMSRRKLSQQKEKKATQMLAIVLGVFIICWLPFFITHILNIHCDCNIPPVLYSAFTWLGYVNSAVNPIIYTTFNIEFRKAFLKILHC
T3 sequence (P34969 whole entry): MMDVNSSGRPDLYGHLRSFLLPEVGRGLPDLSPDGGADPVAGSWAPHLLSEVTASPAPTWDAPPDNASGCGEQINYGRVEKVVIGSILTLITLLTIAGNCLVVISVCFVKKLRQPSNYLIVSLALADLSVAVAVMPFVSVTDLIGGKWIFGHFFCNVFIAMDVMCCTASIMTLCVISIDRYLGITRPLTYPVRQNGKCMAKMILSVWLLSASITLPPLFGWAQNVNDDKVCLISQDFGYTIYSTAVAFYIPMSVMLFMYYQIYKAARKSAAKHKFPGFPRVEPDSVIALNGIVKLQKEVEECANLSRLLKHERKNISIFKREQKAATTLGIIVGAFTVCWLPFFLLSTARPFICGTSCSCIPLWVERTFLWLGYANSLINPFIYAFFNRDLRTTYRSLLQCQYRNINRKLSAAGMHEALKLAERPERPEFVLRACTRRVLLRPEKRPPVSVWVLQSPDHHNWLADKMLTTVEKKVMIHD
T5 sequence (P25021 whole entry): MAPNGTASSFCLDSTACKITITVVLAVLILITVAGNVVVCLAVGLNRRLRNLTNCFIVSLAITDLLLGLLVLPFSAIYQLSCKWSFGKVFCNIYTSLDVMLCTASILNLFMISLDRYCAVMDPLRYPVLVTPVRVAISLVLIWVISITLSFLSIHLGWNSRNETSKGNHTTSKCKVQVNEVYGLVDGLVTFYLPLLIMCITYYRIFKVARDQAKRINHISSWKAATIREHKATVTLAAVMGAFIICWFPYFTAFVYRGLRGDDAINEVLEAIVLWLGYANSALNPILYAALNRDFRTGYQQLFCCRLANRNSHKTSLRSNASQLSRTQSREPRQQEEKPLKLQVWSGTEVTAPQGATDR
T4 sequence (P50406 whole entry): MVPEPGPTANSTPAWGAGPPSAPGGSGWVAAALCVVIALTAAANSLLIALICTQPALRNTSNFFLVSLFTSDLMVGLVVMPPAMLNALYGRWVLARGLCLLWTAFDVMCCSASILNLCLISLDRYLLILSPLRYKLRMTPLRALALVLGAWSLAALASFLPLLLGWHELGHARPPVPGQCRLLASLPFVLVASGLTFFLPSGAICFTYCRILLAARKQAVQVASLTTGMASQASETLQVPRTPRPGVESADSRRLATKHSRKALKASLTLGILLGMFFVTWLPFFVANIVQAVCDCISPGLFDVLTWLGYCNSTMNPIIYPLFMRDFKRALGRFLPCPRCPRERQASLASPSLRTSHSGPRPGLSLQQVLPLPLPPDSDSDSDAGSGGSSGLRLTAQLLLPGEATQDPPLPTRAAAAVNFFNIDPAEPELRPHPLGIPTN
T1 sequence (P28223 whole entry): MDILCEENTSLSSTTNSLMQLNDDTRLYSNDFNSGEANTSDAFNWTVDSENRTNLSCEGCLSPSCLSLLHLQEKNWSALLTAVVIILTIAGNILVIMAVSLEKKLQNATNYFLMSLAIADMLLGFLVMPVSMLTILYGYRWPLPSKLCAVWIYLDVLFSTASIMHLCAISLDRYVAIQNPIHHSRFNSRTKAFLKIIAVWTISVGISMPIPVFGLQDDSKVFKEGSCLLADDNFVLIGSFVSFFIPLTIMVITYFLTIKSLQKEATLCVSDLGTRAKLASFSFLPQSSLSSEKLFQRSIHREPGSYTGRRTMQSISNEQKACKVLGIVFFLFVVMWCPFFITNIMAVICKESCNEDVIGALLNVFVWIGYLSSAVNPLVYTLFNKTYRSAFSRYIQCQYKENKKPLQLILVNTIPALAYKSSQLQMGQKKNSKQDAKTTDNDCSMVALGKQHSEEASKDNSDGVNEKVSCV
T6 sequence (P35367 whole entry): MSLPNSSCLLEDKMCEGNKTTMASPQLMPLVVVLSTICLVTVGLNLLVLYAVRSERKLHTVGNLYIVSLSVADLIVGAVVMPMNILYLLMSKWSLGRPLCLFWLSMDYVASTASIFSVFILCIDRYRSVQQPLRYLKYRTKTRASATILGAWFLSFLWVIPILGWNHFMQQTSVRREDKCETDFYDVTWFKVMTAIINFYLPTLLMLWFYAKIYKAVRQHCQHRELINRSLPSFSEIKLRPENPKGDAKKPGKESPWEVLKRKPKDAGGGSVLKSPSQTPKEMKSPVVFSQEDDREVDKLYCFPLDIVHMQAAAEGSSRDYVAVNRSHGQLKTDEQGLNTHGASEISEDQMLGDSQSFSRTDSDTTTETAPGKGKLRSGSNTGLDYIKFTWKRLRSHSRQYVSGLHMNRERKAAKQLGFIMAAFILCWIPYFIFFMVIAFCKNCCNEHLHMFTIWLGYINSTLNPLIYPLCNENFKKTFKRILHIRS

On to `C/C(=C\n1c2c(c3cc(Cl)ccc31)C1CCC(C2)N1C)c1ccc(Cl)c(Cl)c1` (centres unmarked) [Compound 132], for which the inhibition at 1 µM in assay [1] turned out to be 100%; in assay [2] it was 95%; in assay [3] it was 81%; in assay [4] it was 31%; in assay [5], 99%; in assay [6], 87%.
As to `COc1ccc(C#Cn2c3c(c4cc(Cl)ccc42)C2CCC(C3)N2C)cc1F` (centres unmarked) [Compound 154], the inhibition at 1 µM in assay [1] was 96%; in assay [2], 97%; in assay [3] it was 21%; in assay [7] it was 13%; in assay [4], 31%; in assay [5], 87%. Also, the inhibition at 1 µM in assay [6] was determined as 30%.
`C/C(=C\n1c2c(c3cc(Cl)ccc31)C1CCC(C2)N1C)c1cccnc1` (centres unmarked) [Compound 128]: the inhibition at 1 µM in assay [1] was found to be 91%; in assay [2], 77%; in assay [3], 66%; in assay [7], 21%; in assay [4] it was 62%; in assay [5], 21%. Also, in assay [6], the inhibition at 1 µM turned out to be 15%.
Regarding `C/C(=C\n1c2c(c3cc(C)ccc31)C1CCC(C2)N1C)c1ccccc1F` (centres unmarked) [Compound 164], the inhibition at 1 µM in assay [1] is 94%; in assay [2], 93%; in assay [3] it was 96%; in assay [7], 12%; in assay [4] it was 57%; in assay [5], 41%. The inhibition at 1 µM in assay [6] amounted to 65%.
Regarding `C/C(=C\n1c2c(c3cc(C)ccc31)C1CCC(C2)N1C)c1cccnc1` (centres unmarked) [Compound 129], the inhibition at 1 µM in assay [1] was 88%; in assay [2] it was 72%; in assay [3], 80%; in assay [7], 8%; in assay [4], 19%; in assay [5], 26%. In addition, in assay [6], the inhibition at 1 µM was 5%.
For the compound `COc1ccc(C#Cn2c3c(c4cc(C)ccc42)C2CCC(C3)N2C)cc1F` (centres unmarked) [Compound 155], the inhibition at 1 µM in assay [1] stood at 100%; in assay [2], 99%; in assay [3], 24%; in assay [7], 10%; in assay [4], 49%; in assay [5], 84%. In addition, the inhibition at 1 µM in assay [6] turned out to be 10%.
